Data: paper PMC11703669 (Clinical cancer research : an official journal of the …, 2025)

How the values were obtained:
[1] = Clinical pharmacokinetics after oral administration; type: in vivo, human
[2] = tested on: rats; conditions: rat, in vivo
[3] = tested on: 2-HG plasma concentrations; assay: PK/PD analysis of 2-HG plasma concentrations in patients with AML; type: in vivo, human; conditions: 150 mg BID, by the end of the first cycle; %CV 122%
[4] = tested on: CYP2C19; assay: Hepatocyte induction study: CYP2C19; type: in vitro ADME
[5] = tested on: OATP1B1; assay: Mechanistic static DDI risk assessment with in vitro data: OATP1B1 inhibition; type: in vitro ADME; conditions: at the recommended dosage
[6] = Food effect study in healthy subjects; type: in vivo, human; conditions: single 150 mg dose
[7] = tested on: patients with R/R AML; assay: Study 2102-HEM-101 pivotal cohort: safety
[8] = tested on: pregnant rats; assay: Embryo-fetal development study in rats; type: in vivo
[9] = tested on: cynomolgus monkeys; conditions: cynomolgus monkey, in vivo
[10] = tested on: rats; type: in vivo; conditions: after 48 hours of exposure to UV light
[11] = tested on: mutated IDH1; assay: Nonclinical pharmacology: inhibition of mutated IDH1; type: biochemical
[12] = tested on: CYP2B6; assay: Mechanistic static DDI risk assessment with in vitro data: CYP2B6 induction; type: in vitro ADME; conditions: at the recommended dosage
[13] = tested on: adult patients with R/R AML harboring an IDH1 R132 mutation; assay: Study 2102-HEM-101 pivotal cohort: efficacy; type: in vivo, human
[14] = Clinical drug-drug interaction with rifampin or itraconazole; type: in vivo
[15] = tested on: mutated IDH2 proteins; assay: Nonclinical pharmacology: inhibition of mutated IDH2; type: biochemical
[16] = tested on: CYP2C9; assay: Mechanistic static DDI risk assessment with in vitro data: CYP2C9 induction; type: in vitro ADME; conditions: at the recommended dosage
[17] = QTc interval assessment in patients; type: in vivo, human; conditions: elevated exposures under fed condition
[18] = target: wild type IDH1 (Homo sapiens, UniProt O75874); assay: Nonclinical pharmacology: inhibition of wild type IDH1; type: biochemical
Chain of wild type IDH1 (O75874 whole entry): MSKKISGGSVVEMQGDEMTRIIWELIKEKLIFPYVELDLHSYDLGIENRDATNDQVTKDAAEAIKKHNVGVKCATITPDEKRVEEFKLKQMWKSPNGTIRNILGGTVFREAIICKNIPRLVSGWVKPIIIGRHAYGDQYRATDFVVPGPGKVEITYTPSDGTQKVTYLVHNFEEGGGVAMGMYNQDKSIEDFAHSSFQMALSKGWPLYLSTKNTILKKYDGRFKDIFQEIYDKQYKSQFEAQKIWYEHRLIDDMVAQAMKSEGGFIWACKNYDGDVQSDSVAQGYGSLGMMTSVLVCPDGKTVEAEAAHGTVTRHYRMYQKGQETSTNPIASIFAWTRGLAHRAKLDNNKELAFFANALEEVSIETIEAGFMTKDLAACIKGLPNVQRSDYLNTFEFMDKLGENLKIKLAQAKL

[19] = tested on: CYP3A4; assay: Mechanistic static DDI risk assessment with in vitro data: CYP3A4 induction; type: in vitro ADME; conditions: at the recommended dosage
[20] = tested on: primary human AML cells; assay: Treatment of primary human AML cells; type: cell-based
[21] = tested on: pregnant rabbits; assay: Embryo-fetal development study in rabbits; type: in vivo
[22] = target: cytochrome P450 (CYP)3A4 (Homo sapiens, UniProt P08684); assay: Metabolism by cytochrome P450 enzymes; type: in vitro ADME; conditions: minor contributions from CYP2C8, CYP2C9, CYP1A2, CYP2C19
Chain of cytochrome P450 (CYP)3A4 (P08684 whole entry): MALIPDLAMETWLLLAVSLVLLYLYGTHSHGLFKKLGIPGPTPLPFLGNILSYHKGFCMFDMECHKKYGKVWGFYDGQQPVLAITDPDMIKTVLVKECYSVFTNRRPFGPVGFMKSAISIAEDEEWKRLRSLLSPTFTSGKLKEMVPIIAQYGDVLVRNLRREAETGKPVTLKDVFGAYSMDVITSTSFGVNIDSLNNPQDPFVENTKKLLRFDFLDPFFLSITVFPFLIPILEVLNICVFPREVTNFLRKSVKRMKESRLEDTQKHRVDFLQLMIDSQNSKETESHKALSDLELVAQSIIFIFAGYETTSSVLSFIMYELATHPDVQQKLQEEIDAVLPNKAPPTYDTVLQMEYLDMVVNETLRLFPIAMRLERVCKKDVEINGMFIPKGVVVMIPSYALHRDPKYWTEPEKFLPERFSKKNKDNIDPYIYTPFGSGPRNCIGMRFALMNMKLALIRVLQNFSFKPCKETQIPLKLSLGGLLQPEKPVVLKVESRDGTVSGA

[23] = in vivo
[24] = tested on: CYP2C8; assay: Mechanistic static DDI risk assessment with in vitro data: CYP2C8 induction; type: in vitro ADME; conditions: at the recommended dosage
[25] = tested on: cell lines expressing mutated IDH1 proteins (R132H, R132L, R132S, R132G, and R132C); assay: 2-HG production in cell lines expressing mutated IDH1 proteins; type: cell-based; conditions: read-out: IC50 for suppression of 2-HG production
[26] = tested on: adult patients with R/R AML or myelodysplastic syndrome (MDS) harboring an IDH1 R132 mutation; assay: Study 2102-HEM-101 dose escalation/expansion portion
[27] = tested on: CYP1A2; assay: Mechanistic static DDI risk assessment with in vitro data: CYP1A2 induction; type: in vitro ADME; conditions: at the recommended dosage
[28] = tested on: patients with R/R AML; conditions: in vivo
[29] = tested on: patients with R/R AML and a susceptible IDH1 mutation; conditions: cited from earlier work
[30] = concomitant multiple doses of rifampin, a strong CYP3A inducer

Compound: C[C@H](Nc1ccc(C#N)n(C)c1=O)c1cc2cc(Cl)ccc2[nH]c1=O [Olutasidenib, olutasidenib]
- dose proportionality of Cmax and AUC ([1]; dose range of 100 to 300 mg): increased less than proportionally
- time to steady-state plasma levels ([1]; human, in vivo): ≤ 14 days
- half-life ([1]; human, plasma, po): ~67 h
- time to maximum plasma concentration (Cmax) ([1]; oral administration): approximately 4 hours
- general toxicology findings [2]: altered glucose and lipid metabolism, inflammation, and the GI tract, liver, kidney, and cardiovascular system as the main organs of toxicity
- mean reduction of 2-HG plasma concentration [3]: 59.1%
- potential to induce CYP2C19 [4]: cannot be ruled out
- OATP1B1 inhibition potential [5]: inhibit
- mean increase of AUCinf with a high-fat meal ([6]; CV% 18.3%): 83%
- mean increase of Cmax with a high-fat meal ([6]; CV% 20.6%): 191%
- deaths due to complications from DS ([7]; 2 deaths, of on treatment deaths): 4%
- 30-day mortality ([7]; 13 patients): 8%
- deaths on treatment (on or within 28 days of the last dose) ([7]; 45 deaths): 29%
- total deaths ([7]; 101 of 153 patients): 66%
- on treatment deaths due to underlying AML or complications from AML ([7]; thirty-seven of 45 on treatment deaths): 82%
- embryo-fetal development findings [8]: embryo-fetal death and altered fetal growth
- general toxicology findings [9]: altered glucose and lipid metabolism, inflammation, and the GI tract, liver, kidney, and cardiovascular system as the main organs of toxicity
- phototoxicity finding [10]: erythema in the skin
- inhibitory activity against mutated IDH1 [11]: inhibited
- CYP2B6 induction potential [12]: may induce
- CR + CRh rate ([13]; 150 mg BID, 147 efficacy-evaluable patients, 95% CI 27-43%): 35%
- CR + CRh, n (%) ([13]; 150mg BID, N=147): 51 (35) n (%)
- CR, n (%) ([13]; 150mg BID, N=147): 47 (32) n (%)
- Median DOCR ([13]; 150mg BID, N=147): 28.1 months
- Median DOCRh ([13]; 150mg BID, N=147): 3.6 months
- median duration of CR + CRh (DOCR + CRh, duration of response) ([13]; 150 mg BID, N=147, 95% CI 13.5, NR): 25.9 months
- conversion from transfusion dependence (TD) to transfusion independence (TI) ([13]; 29 of 86 patients TD at baseline): 34%
- maintenance of TI in patients TI at baseline ([13]; 39/61 patients): 64%
- CR + CRh rate at interim analysis for efficacy ([13]; 41 out of 123 efficacy evaluable subjects, 95% CI 25.1%-42.4%): 33%
- patients able to proceed to allogeneic stem cell transplantation after treatment ([13]; sixteen of 147 patients): 11%
- differences in PK with itraconazole ([14]; concomitant multiple doses of itraconazole, a strong CYP3A and P-gp inhibitor): No clinically significant differences
- decrease of AUC with rifampin [14, 30]: 80%
- decrease of Cmax with rifampin [14, 30]: 43%
- inhibitory activity against mutated IDH2 proteins [15]: little or no inhibitory activity
- CYP2C9 induction potential [16]: may induce
- QT prolongation expected under a fed condition [17]: ≤ 30 ms
- inhibitory activity against wild type IDH1 [18]: little or no inhibitory activity
- CYP3A4 induction potential [19]: may induce
- 2-HG production [20]: suppressed 2-HG production
- cell differentiation [20]: induced granulocytic/monocytic cell differentiation
- cell proliferation [20]: increased cell proliferation
- embryo-fetal development findings [21]: embryo-fetal death and altered fetal growth
- share of metabolism by CYP3A4 [22]: 90%
- tissue distribution [23]: binding of olutasidenib to melanin-containing tissues
- CYP2C8 induction potential [24]: may induce
- IC50 [25]: 8 to 116 nM
- patients with CR, CRh or CRi (preliminary efficacy) ([26]; 150mg BID, dose escalation/expansion portion, 5/13 patients): 38%
- dose-limiting toxicities ([26]; dose escalation): no dose-limiting toxicities observed
- CYP1A2 induction potential [27]: may induce
- Abdominal Pain, Any Grade ([28]; human): 28 (18)
- Abdominal Pain, Grade ≥3 ([28]; human): 1 (1)
- Arthralgia, Any Grade ([28]; human): 43 (28)
- Arthralgia, Grade ≥3 ([28]; human): 4 (3)
- Constipation, Any Grade ([28]; human): 39 (26)
- Constipation, Grade ≥3 ([28]; human): 0
- Cough, Any Grade ([28]; human): 26 (17)
- Cough, Grade ≥3 ([28]; human): 1 (1)
- Diarrhea, Any Grade ([28]; human): 31 (20)
- Diarrhea, Grade ≥3 ([28]; human): 2 (1)
- Differentiation Syndrome, Any Grade ([28]; human): 25 (16)
- Differentiation Syndrome, Grade ≥3 ([28]; human): 13 (8)
- Dyspnea, Any Grade ([28]; human): 37 (24)
- Dyspnea, Grade ≥3 ([28]; human): 4 (3)
- Edema, Any Grade ([28]; human): 27 (18)
- Edema, Grade ≥3 ([28]; human): 4 (3)
- Fatigue/Malaise, Any Grade ([28]; human): 55 (36)
- Fatigue/Malaise, Grade ≥3 ([28]; human): 2 (1)
- Grade 3 or higher adverse reaction: dyspnea ([28]; human): 5%
- Grade 3 or higher adverse reaction: hypertension ([28]; human): 5%
- Grade 3 or higher adverse reaction: leukocytosis ([28]; human): 9%
- Grade 3 or higher adverse reaction: transaminitis ([28]; human): 12%
- Grade 3 or higher differentiation syndrome ([28]; human): 8%
- Headache, Any Grade ([28]; human): 19 (13)
- Headache, Grade ≥3 ([28]; human): 0
- Hypertension, Any Grade ([28]; human): 16 (10)
- Hypertension, Grade ≥3 ([28]; human): 7 (5)
- Leukocytosis, Any Grade ([28]; human): 38 (25)
- Leukocytosis, Grade ≥3 ([28]; human): 14 (9)
- Mucositis, Any Grade ([28]; human): 35 (23)
- Mucositis, Grade ≥3 ([28]; human): 5 (3)
- Nausea, Any Grade ([28]; human): 57 (38)
- Nausea, Grade ≥3 ([28]; human): 0
- Pyrexia, Any Grade ([28]; human): 36 (24)
- Pyrexia, Grade ≥3 ([28]; human): 1 (1)
- QTc prolongation TEAE, Grade 3 or higher ([28]; human): 1%
- QTc prolongation TEAE, any grade ([28]; human): 8%
- Rash, Any Grade ([28]; human): 36 (24)
- Rash, Grade ≥3 ([28]; human): 2 (1)
- Transaminitis, Any Grade ([28]; human): 31 (20)
- Transaminitis, Grade ≥3 ([28]; human): 18 (12)
- Vomiting, Any Grade ([28]; human): 25 (16)
- Vomiting, Grade ≥3 ([28]; human): 1 (1)
- differentiation syndrome (DS), all grades ([28]; human): 16%
- dose reductions due to adverse reactions ([28]; human): 11%
- median time to onset of DS ([28]; human): 14 days
- median time to onset of transaminitis ([28]; human): 1.2 months
- median time to resolution of transaminitis ([28]; human): 12 days
- patients who discontinued therapy due to an AR ([28]; human): 8%
- patients with DS who had olutasidenib held ([28]; human): 44%
- patients with DS who recovered after treatment or dosage interruption ([28]; human): 76%
- patients with a Grade 3 or 4 TEAE ([28]; human): 84%
- patients with a Grade 3 or 4 hepatotoxicity TEAE ([28]; human): 13%
- patients with dose held due to QTc prolongation ([28]; human): 1%
- patients with therapy discontinued due to a hepatobiliary AR ([28]; human): 5%
- patients with therapy reduced due to a hepatobiliary AR ([28]; human): 6%
- patients with treatment interrupted due to an AR ([28]; human): 32%
- rate of ALT elevation ([28]; human): 46%
- rate of AST elevation ([28]; human): 47%
- treatment discontinuation due to DS ([28]; human): 3%
- treatment discontinuation due to gallbladder disorders ([28]; human): 1%
- treatment discontinuation due to transaminitis ([28]; human): 3%
- treatment interruption due to DS ([28]; human): 7%
- treatment interruption due to transaminitis ([28]; human): 10%
- Hy's Law cases [28]: no confirmed Hy’s Law cases
- patients with dose reduced or discontinued due to QTc prolongation [28]: no patients

Compound: N#Cc1ccnc(N2C(=O)CC[C@H]2C(=O)N(c2cncc(F)c2)[C@H](C(=O)NC2CC(F)(F)C2)c2ccccc2Cl)c1 [Ivosidenib, ivosidenib]
- CR + CRh rate ([29]; R/R AML with susceptible IDH1 mutation): 33%
- differentiation syndrome, all grades [29]: 19%
- differentiation syndrome, grade 3 or higher [29]: 13%
- median duration of response [29]: 8.2 months
- rate of conversion of TD to TI [29]: 37%
- rate of ALT elevation ([29]; patients with R/R AML): 15%
- rate of AST elevation ([29]; patients with R/R AML): 27%
- rate of all grade QTc prolongation ([29]; patients with R/R AML): 26%
